{
  "source": "patent US20140335203A1",
  "about": "“SYNERGISTIC BLENDS OF ANTIMICROBIALS USEFUL FOR CONTROLLING MICROORGANISMS IN INDUSTRIAL PROCESSES” (Hercules Incorporated, priority 2013, published 2014)",
  "key": {"Weisella confusa": {"test_system": "Weisella confusa", "conditions": "cited from earlier work"}, "fermentation": {"test_system": "fermentation", "conditions": "cited from earlier work"}, "Lactobacillus plantarum [1]": {"test_system": "Lactobacillus plantarum", "experiment": "Checkerboard synergy plates (MIC in combination, Synergy Index by Kull et al.)", "assay_type": "cell-based", "conditions": "pH 6", "procedure": "Minimal inhibitory concentrations were determined for both chlorine dioxide and citric acid at pH 6 using the protocol described above with Lactobacillus plantarum as the test microbe. Checkerboard synergy plates were constructed as described, the wells inoculated to a final concentration of ˜5×10^5 cfu/ml, incubated for 18-24 hours, and then scored visually for growth/no growth. […] Minimal inhibitory concentrations were determined for both chlorine dioxide and sodium propionate at pH 6 using the protocol described above with Lactobacillus plantarum as the test microbe. Checkerboard synergy plates wore constructed as described, the wells inoculated to a final concentration of ˜5×10^5 cfu/ml, incubated for 18-24 hours, and then scored visually for growth/no growth. […] Minimal inhibitory concentrations were determined for both chlorine dioxide and potassium benzoate at pH 6 using the protocol described above with Lactobacillus plantarum as the test microbe. Checkerboard synergy plates were constructed as described, the wells inoculated to a final concentration of ˜5×10^5 cfu/ml, incubated for 18-24 hours, and then scored visually for growth/no growth. […] Minimal inhibitory concentrations were determined for both chlorine dioxide and ascorbic acid at pH 6 using the protocol described above with Lactobacillus plantarum as the test microbe. […]"}, "Lactobacillus plantarum [2]": {"test_system": "Lactobacillus plantarum", "experiment": "Minimal Inhibitory Concentration (MIC), two-fold dilution series in 96 well microplate, antimicrobial used alone", "assay_type": "cell-based", "conditions": "pH 6; for MIC: Lactiplantibacillus plantarum", "source_text": "While there are various methods known to individuals skilled in the art for measuring levels of antimicrobial activity, in the following examples the endpoint used is known as the Minimal Inhibitory Concentration, or MIC. This is the lowest concentration of a substance or substances which can achieve complete inhibition of growth.\nIn order to determine the Minimal Inhibitory Concentration, a two-fold dilution series of the antimicrobial is constructed with the dilutions being made in growth media. The dilutions are made in a 96 well microplate such that each well has a final volume of 280 μl of media and antimicrobial. […] After the dilution series is constructed the wells receive an inoculum of microbe suspended in growth media such that the final concentration of microbes in the well is ˜5×10^5 cfu/ml. In these examples the test microbe used is Lactobacillus plantarum. The cultures are incubated at an appropriate temperature for 18-24 hours, and the wells scored as positive or negative for growth based on a visual examination for turbid wells. A turbid well indicates growth has occurred.\nMinimal inhibitory concentrations were determined for both chlorine dioxide and citric acid at pH 6 using the protocol described above with Lactobacillus plantarum as the test microbe. Checkerboard synergy plates were constructed as described, the wells inoculated to a final concentration of ˜5×10^5 cfu/ml, incubated for 18-24 hours, and then scored visually for growth/no growth. […] Minimal inhibitory concentrations were determined for both chlorine dioxide and sodium propionate at pH 6 using the protocol described above with Lactobacillus plantarum as the test microbe. Checkerboard synergy plates wore constructed as described, the wells inoculated to a final concentration of ˜5×10^5 cfu/ml, incubated for 18-24 hours, and then scored visually for growth/no growth.\n(§1) Minimal inhibitory concentrations were determined for both chlorine dioxide and potassium benzoate at pH 6 using the protocol described above with Lactobacillus plantarum as the test microbe. Checkerboard synergy plates were constructed as described, the wells inoculated to a final concentration of ˜5×10^5 cfu/ml, incubated for 18-24 hours, and then scored visually for growth/no growth.\nas §1, with “ascorbic acid” for “potassium benzoate”"}},
  "note": "Where “and” joins values, the source holds several entries; their conditions need not be identical. Equal entries are not always repeated. Where two headings read alike, the source gives them in different places.",
  "data": [
    {"molecule": "Virginiamycin", "values": [
      {"measurement": "concentration required to inhibit growth of Weisella confusa", "setting": "Weisella confusa", "value": "over 25 mg/L"},
      {"measurement": "concentration that will suppress fermentation", "setting": "fermentation", "value": "over 2 mg/L"}
    ]},
    {"molecule": "O=C(O)CC(O)(CC(=O)O)C(=O)O", "note": "[Citric Acid, citric acid]", "values": [
      {"measurement": "Citric Acid MIC (Qb), used in combination", "setting": "Lactobacillus plantarum [1]; in combination with ClO2", "value": "390-12,500 ppm"},
      {"measurement": "MIC", "setting": "Lactobacillus plantarum [2]; read-out: Citric Acid MIC (QB), used alone", "value": 100, "unit": "mg/mL"},
      {"measurement": "Citric Acid MIC (QB), used alone", "setting": "Lactobacillus plantarum [2]", "value": 100000, "unit": "ppm"}
    ]},
    {"molecule": "O=C1O[C@H]([C@@H](O)CO)C(O)=C1O", "note": "[Ascorbic Acid, ascorbic acid]", "values": [
      {"measurement": "MIC", "setting": "Lactobacillus plantarum [2]; read-out: Ascorbic Acid MIC (QB), used alone", "value": 10, "unit": "mg/mL"}
    ]},
    {"molecule": "CCC(=O)[O-].[Na+]", "note": "[Sodium Propionate, sodium propionate]", "values": [
      {"measurement": "Sodium Propionate MIC (QB), used alone", "setting": "Lactobacillus plantarum [2]", "value": 100000, "unit": "ppm"},
      {"measurement": "Sodium Propionate MIC (QB), used alone", "setting": "Lactobacillus plantarum [2]; listed as sodium propionate", "value": "100,000 ppm"}
    ]},
    {"molecule": "O=C([O-])c1ccccc1.[K+]", "note": "[Potassium Benzoate, potassium benzoate]", "values": [
      {"measurement": "Potassium Benzoate MIC (QB), used alone", "setting": "Lactobacillus plantarum [2]", "value": 100000, "unit": "ppm"},
      {"measurement": "Potassium Benzoate MIC (QB), used alone", "setting": "Lactobacillus plantarum [2]; listed as potassium benzoate", "value": "100,000 ppm"}
    ]},
    {"molecule": "[O][Cl+][O-]", "note": "[ClO2, chlorine dioxide]", "values": [
      {"measurement": "ClO2 MIC (Qa), used in combination", "setting": "Lactobacillus plantarum [1]; in combination with citric acid", "value": "15-60 ppm"},
      {"measurement": "ClO2 MIC (QA), used alone", "setting": "Lactobacillus plantarum [2]; Table 1 (citric acid series)", "value": 100, "unit": "ppm"},
      {"measurement": "ClO2 MIC (QA), used alone", "setting": "Lactobacillus plantarum [2]; Table 2 (sodium propionate series)", "value": 115, "unit": "ppm"},
      {"measurement": "ClO2 MIC (QA), used alone", "setting": "Lactobacillus plantarum [2]; Table 3 (potassium benzoate series)", "value": "115 ppm and 130 ppm"},
      {"measurement": "ClO2 MIC (QA), used alone", "setting": "Lactobacillus plantarum [2]; Table 3 (potassium benzoate series), listed as chlorine dioxide", "value": "115 ppm and 130 ppm"},
      {"measurement": "ClO2 MIC (QA), used alone", "setting": "Lactobacillus plantarum [2]; Table 4 (ascorbic acid series)", "value": 67.5, "unit": "ppm"}
    ]}
  ]
}
